The test system of one test is MV-4-11. As to the kind of experiment: Long term proliferation assay (Table 3A), MV-4-11. The note with it: Homo sapiens, MV4-11; MV-4-11, Day 4; read-out: MV-4-11 Day 4 IC50. The class given is cell-based. How it is done:
(§1) Example 5b: IC50 determination of compounds of invention in various cell lines (Long Term Proliferation Assay)
(§2) The following 5 cell lines are used or can be used for the long term proliferation assay.
(§3) Compounds of invention are tested in the 5 suspension lines by 14-day long-term proliferation assay.
(§4) The compound is tested in 10-pt dose titration (client will determine the starting concentration and the dilution scheme) and the final DMSO concentration is kept at 0.2%.
(§5) Vehicle and media control are also included. All treatments are done in triplicate.
(§6) 3 plates are used for each cell line and 15 plates are used for the 5 cell lines.
(§7) • 1) On Day 0, in a flat bottom 96-well plate, add 100 μL of cells per well at the densities optimized. • 2) Prepare compounds in DMSO at 500× final concentration. Dilute the compounds with DMSO at the dilution. • 3) Dilute the compounds in media at 3×final concentration. Add 50 μL of compound or DMSO at 3× final concentration to each well. Final volume in each well is 150 μL, and final concentration of DMSO is 0.2%. Also include 3 untreated control wells, by adding 50 μL of media alone. 4) Incubate plates for 96 hours. • 5) Count the cells using the Acumen, with capabilities for 96-well plates. Pipette cells up and down to mix in each well, and add desired volume of cells to a new flat bottom poly-D-lysine 96-well plate. Add Calcein AM at 1 μM final concentration. Let cells sit at RT for 10 mins followed by a quick spin to get cells settled on the bottom of the wells. Incubate the plate for additional 40 mins in the incubator. Take out the plate and read by Acumen. Calculate the cell numbers taken into account the dilution factors. • 6) Split the master plate. To do this take the total viable cell count calculated using step 5). Take the average of the replicates for each dose in order to be used in splitting the cells. • 7) Use a 96 well V-bottom plate to spin down the cells to remove old media and compound to split the cells. Based on the split ratio place the proper amount of media and cells into the V-bottom plate, and spin the plate at 1100 rpm for 5 minutes. • 8) Following the spin remove the media, careful not to disturb the cellpellet. • 9) Re-suspend pellet in 100 μL fresh media, and add to a new 96-well flat bottom plate. • 10) Add fresh compound, in the same manner as Step 3). • 11) Incubate plates for 72 hours. Repeat steps 5)-10) on Day 7. • 12) Incubate plates for 96 hours. Repeat Step 5)-10) on Day 11. • 13) Incubate 72 hours and repeat step 5) to take a final count. • 14) Data Analysis
(§8) To calculate growth for days 4, 7, 11, and 14: • Calculate the split factor for day 4 to 7, day 7 to 11, and day 11-14.

A further test relates to MOLM-13. As to the kind of experiment: Long term proliferation assay (Table 3A), MOLM-13. The class given is cell-based. The note with it: Homo sapiens, 96 h; MOLM-13, Day 4; read-out: MOLM-13 Day 4 IC50. How it is done: as §1, §2, §3, §4, §5, §6, §7, §8
A further test concerns the target menin (Homo sapiens (Human), UniProt O00255). In words: Kd (Table 3A). In kind it is binding.
The test system of the next test is HL-60. In words: Proliferation study, CellTiterGlo, 4 days (Example 102), HL-60. The class given is cell-based. The following applies: HL-60, 4 days treatment; for HL-60 % max: maximal inhibition; for IC50: Homo sapiens, 96 h, CellTiterGlo. The source says:
(§9) The objective of the study was to evaluate the ability of representative compounds of the present invention, inhibitors of Menin/MLL interaction to inhibit cell proliferation. The proliferation inhibitory effect was investigated in two human MLL-leukemia cells selected on the bases of MLL fusion protein and listed in Table 102. HL-60 cell line was used as negative control.
(§10) ATP is present in all metabolically active cells and is considered as a marker for cell viability and proliferation. The metabolic cell activity was determined using the CellTiter-Glo kit from Promega, an ATP monitoring system based on the production of luminescence by the reaction of ATP with added UltraGlo® recombinant luciferase (Kawano et al., 2016), according to the supplier's experimental recommendations.
(§11) The described assay evaluates the ability of 4 representative compounds to inhibit the cell proliferation in the human MLL-leukemia cells plus a negative control cell line.
(§12) The assay provides potency values (IC50) for each test compound at a single time point Day 4 (T4).
(§13) Seven concentrations of the compounds (2.00E-05-6.67E-06-2.22E-06-7.41E-07-2.47E-07-8.23E-08-2.74E-08M), were assessed in duplicate in an individual test occasion in all the cell lines. MI-503 (Borkin et al., 2015) was used as reference compound and was tested at the same concentrations as the NCEs. 100% of proliferation is represented by the untreated cells (0.2% DMSO). The cell growth was monitored up to 4 days in culture.
(§14) MV4-11, MOLM-13 and HL-60 cells (see Table 2) were maintained in RPMI-1640 medium (Invitrogen, Cat. n. 618700, Batch n. 1965930) supplemented with 10% of Heat Inactivated FBS (Invitrogen, Cat n. 10500, Batch n. 08Q8078K) and 1% Pen-Strep (Invitrogen, Cat. N. 15140, Batch n. 1910859) and cultured at 37° C. in a humidified incubator with 5% CO2. All the cell lines grow in suspension and the cell density was maintained in a range of 2×10^5-1×10^6 viable cells/ml. Cells were pelleted at 130 g×5 min and conditioned medium was used to dilute the cell suspension.
(§15) Test items were dissolved in glass vials at 10 mM in DMSO with purity ≥99.9% (Sigma, D8418, batch n. SHBH4245V) and stored at −20° C. in 1.5 mL Eppendorf tubes.
(§16) Serial dilutions 1 to 3 in DMSO 100% were prepared starting from a 10 mM stock solutions to generate 7 points concentration response curve (CRC).
(§17) For each plate to test, one 0.4 μL copy plate and four 0.3 μL copy plates were then stamped into 96-well plates not treated for cell adhesion (Sarstedt—cat.no. 82.1581.001) by acoustic liquid Handling, Echo, at a concentration which was 500 fold the final assay concentration. Stamped plates were stored at −20° C. The final concentrations for the reference compound, MI-503, and the test items were: 2.00E-05, 6.67E-06, 2.22E-06, 7.41E-07, 2.47E-07, 8.23E-08 and 2.74E-08 M.
(§18) Cells were plated in 96-well flat bottom microtiter plates at cell density of 15,000 cells/ml for HL-60, 1000 cells/ml for MOLM-13 and 10,000 cell/ml for MV4-11. Cells were treated with 0.2% DMSO (Sigma, D8418, batch n. SHBH4245V) or serial dilutions of compounds (0.027 μM-20 μM) in DMSO (0.2% final concentration). Cells were incubated in a 5% CO2 incubator at 37° C. for 4 days. A CellTiterGlo viability assay (Promega) was employed. Luminescence was read by using VictorV (Perkin Elmer) multilabel plate reader using the standard protocol for luminescence in 96 well plate. The experiment was performed in duplicate.
(§19) Data were expressed as % of inhibition compared to the 0.2% DMSO negative control, and was calculated as follows: […]
(§20) CRCs were analysed by GraphPad and IC50 values were calculated by non-linear regression using 4 parameter-logistic equation. IC50 (μM) values were reported in the final data table. The curve fittings were performed leaving free all the parameters. Any constrain were reported in the results table.
In general terms: ATP-based viability assays read luminescence as a measure of living cells.

A further test has as its system MV4-11 (MLL-AF4). In words: Proliferation study, CellTiterGlo, 4 days (Example 102), MV4-11. The following applies: MV4-11, 4 days treatment; for IC50: Homo sapiens, MV4-11, 96 h, CellTiterGlo; for MV4-11 (MLL-AF4) % max: maximal inhibition. The class given is cell-based, human.
Text: as §9, §10, §11, §12, §13, §14, §15, §16, §17, §18, §19, §20

The test system of another test is MOLM-13 (MLL-AF9). As to the kind of experiment: Proliferation study, CellTiterGlo, 4 days (Example 102), MOLM-13. The following applies: MOLM-13, 4 days treatment; for IC50: Homo sapiens, 96 h, CellTiterGlo; for MOLM-13 (MLL-AF9) % max: maximal inhibition. The class given is cell-based, human.
Text: as §9, §10, §11, §12, §13, §14, §15, §16, §17, §18, §19, §20

[1] abbreviates: read-out: HL-60 pIC50 (converted).
The mark [2] stands for this setting: read-out: MV4-11 (MLL-AF4) IC50.
Setting [3] is: read-out: MV4-11 (MLL-AF4) pIC50 (converted).
[4] abbreviates: read-out: MOLM-13 (MLL-AF9) IC50.
The mark [5] stands for this setting: read-out: MOLM-13 (MLL-AF9) pIC50 (converted).

This is an account of results in patent US20240140953A1, “INHIBITORS OF MENIN-MLL INTERACTION” (BIOMEA FUSION, INC., priority 2018, published 2024).

Read-outs that look alike come from different tables or passages of the source.

menin, sequence (O00255 whole entry, species assumed): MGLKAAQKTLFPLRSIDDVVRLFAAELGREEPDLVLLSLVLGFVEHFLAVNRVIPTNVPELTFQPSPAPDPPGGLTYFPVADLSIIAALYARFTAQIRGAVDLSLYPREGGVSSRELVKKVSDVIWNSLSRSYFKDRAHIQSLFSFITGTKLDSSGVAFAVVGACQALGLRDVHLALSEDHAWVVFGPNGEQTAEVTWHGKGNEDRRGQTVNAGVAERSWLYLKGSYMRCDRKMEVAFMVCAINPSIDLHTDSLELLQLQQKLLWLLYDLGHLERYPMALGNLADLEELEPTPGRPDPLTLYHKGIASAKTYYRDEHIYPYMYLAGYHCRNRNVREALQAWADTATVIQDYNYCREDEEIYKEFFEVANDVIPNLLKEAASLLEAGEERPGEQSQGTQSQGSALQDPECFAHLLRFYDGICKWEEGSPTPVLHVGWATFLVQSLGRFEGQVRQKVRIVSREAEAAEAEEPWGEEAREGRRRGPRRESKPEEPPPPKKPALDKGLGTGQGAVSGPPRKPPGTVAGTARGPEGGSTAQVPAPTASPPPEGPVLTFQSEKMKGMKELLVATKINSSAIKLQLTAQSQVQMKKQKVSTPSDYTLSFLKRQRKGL

For orientation: Kd means the constant that tells how readily two partners part at equilibrium. With `O=C(Cc1cc(-c2cccnc2)n[nH]1)Nc1ccc(-c2cc3c(N4CCOCC4)ncnc3[nH]2)cc1` [Compound 10, N-{4-[4-(morpholin-4-yl)-7H-pyrrolo[2,3-d]pyrimidin-6-yl]phenyl}-2-[3-(pyridin-3-yl)-1H-pyrazol-5-yl]acetamide], the IC50 in the test with MV-4-11 is 220 nM; in the test with MOLM-13, 310 nM; with HL-60 (read-out: HL-60 IC50) it was 360 nM; in the test on HL-60 (setting [1]), 363 nM; in the test with MV4-11 (MLL-AF4) (setting [2]), 220 nM; with MV4-11 (MLL-AF4) (setting [3]), 224 nM. Besides, the values for the IC50 with MOLM-13 (MLL-AF9) (setting [4]) and in the test with MOLM-13 (MLL-AF9) (setting [5]) were 310 nM and 309 nM, respectively. Also, binding at menin was put at a Kd of 2700 ± 4000 nM. Also, the HL-60 % max in the test on HL-60 came to 65%. Besides, the “MV4-11 (MLL-AF4) % max” value in the test with MV4-11 (MLL-AF4) was found to be 100%. Moreover, in the test with MOLM-13 (MLL-AF9), the “MOLM-13 (MLL-AF9) % max” value stood at 94%.
Turning to `Cc1cn(-c2ncnc3[nH]c(-c4ccc(NC(=O)Cc5cc(-c6cccnc6)n[nH]5)cc4)cc23)cn1` [Compound 13, N-{4-[4-(4-methyl-1H-imidazol-1-yl)-7H-pyrrolo[2,3-d]pyrimidin-6-yl]phenyl}-2-[3-(pyridin-3-yl)-1H-pyrazol-5-yl]acetamide], the IC50 with MV-4-11 is 910 nM; in the test on MOLM-13, 1230 nM; in the test on HL-60 (read-out: HL-60 IC50) it was 2750 nM; in the test with HL-60 (setting [1]), 2750 nM; in the test on MV4-11 (MLL-AF4) (setting [2]), 910 nM; in the test on MV4-11 (MLL-AF4) (setting [3]), 912 nM. Also, the IC50 with MOLM-13 (MLL-AF9) (setting [4]) and with MOLM-13 (MLL-AF9) (setting [5]) was 1230 nM each time. The compound further registered an HL-60 % max with HL-60 of 112%. Further, in the test on MV4-11 (MLL-AF4), the “MV4-11 (MLL-AF4) % max” value was 105%. In addition, the “MOLM-13 (MLL-AF9) % max” value in the test on MOLM-13 (MLL-AF9) is given as 101%.
